One may read the IC50 as the concentration that gives 50% inhibition.

In one test the test system is HL-60. In words: Anticancer activity against human HL-60 cells assessed as reduction in cell viability incubated for 72 hrs by MTT assay. The class given is functional, cell-based. Particulars: HL-60, 72 h.
The next test relates to HEp-2. The test can be described thus: Anticancer activity against human HEp-2 cells assessed as reduction in cell viability incubated for 72 hrs by MTT assay. Particulars: HEp-2, 72 h. The class given is functional, cell-based. In general terms: Tetrazolium assays rely on reduction of a dye to a coloured formazan, in cell work by metabolically active cells.
A further test has as its system THP-1. In words: Anticancer activity against human THP-1 cells assessed as reduction in cell viability incubated for 72 hrs by MTT assay. The class given is functional, cell-based. Particulars: THP-1, 72 h.
A further test relates to A 172. In words: Anticancer activity against human A-172 cells assessed as reduction in cell viability incubated for 72 hrs by MTT assay. The class given is functional, cell-based. The following applies: A 172, 72 h.
A further test deals with CNE. In words: Anticancer activity against human CNE cells assessed as reduction in cell viability incubated for 72 hrs by MTT assay. The class given is functional, cell-based.
Test [1] in a line: Anticancer activity against human U87 cells assessed as reduction in cell viability incubated for 72 hrs by MTT assay. The class given is functional, cell-based, U-87MG ATCC. The following applies: U-87 MG.
For a further test, the system named is DBTRG-05MG. In words: Cytotoxicity against human DBTRG-05MG cells assessed as inhibition of cell viability incubated for 24 hrs by sulforhodamine B assay. The class given is functional, cell-based.
Test [2] deals with MDA-MB-231. In words: Cytotoxicity against human MDA-MB-231 cells assessed as inhibition of cell viability incubated for 24 hrs by sulforhodamine B assay. The class given is functional, cell-based. Particulars: MDA-MB-231, 24 h. For orientation: In SRB staining, fixed cells bind dye roughly in proportion to their protein.
In a further test the test system is MCF7. The test can be described thus: Anticancer activity against human MCF7 cells assessed as inhibition of cell viability incubated for 48 hrs by CCK-8 assay. The class given is functional, cell-based. Particulars: MCF7, 48 h.
Test [3] relates to MDA-MB-231. The test can be described thus: Anticancer activity against human MDA-MB-231 cells assessed as inhibition of cell viability incubated for 48 hrs by CCK-8 assay. The class given is functional, cell-based. Particulars: MDA-MB-231, 48 h.
A further test relates to Calu-1. The test can be described thus: Induction of ferroptosis in human Calu-1 cells assessed as inhibition of (cystine-glutamate antiporter) system Xc- mediated cystine transport. The class given is functional, cell-based.
Test [4] has as its system HT-1080. In words: Induction of ferroptosis in human HT-1080 cells assessed as inhibition of (cystine-glutamate antiporter) system Xc- mediated cystine transport. The class given is functional, cell-based.
Test [5] in a line: Induction of ferroptosis in human BJeLR cells assessed as inhibition of (cystine-glutamate antiporter) system Xc- mediated cystine transport. The class given is functional, cell-based. The following applies: bjelr cell.
The subject of test [6] is SW480. In words: Antitumor activity against human SW480 cells assessed as reduction in cell viability incubated for 48 hrs by CCK8 assay. The class given is functional, cell-based. The following applies: SW480, 48 h.
A further test concerns RKO. The test can be described thus: Antitumor activity against human RKO cells assessed as reduction in cell viability incubated for 48 hrs by CCK8 assay. The class given is functional, cell-based.
For a further test, the system named is HCT-116. The test can be described thus: Antitumor activity against human HCT-116 cells assessed as reduction in cell viability incubated for 48 hrs by CCK8 assay. The class given is functional, cell-based. Particulars: HCT-116, 48 h.
In another test the test system is MEF. In words: Antitumor activity against mouse MEF cells xenografted in nude mouse assessed as reduction in tumor weight at 40 mg/kg, po twice daily for 7 days relative to control. The following applies: time 7 day. Further details: scale not given: the % may be the effect or the level left. The class given is functional.
Test [7] can be described thus: Antiproliferative activity against BALB/C mouse TBCP-1 cells assessed as inhibition of cell proliferation incubated for 3 days by sulforhodamine B colorimetric assay. The class given is functional, cell-based. The following applies: TBCP-1, 72 h.
In the next test the test system is SK-BR-3. In words: Antiproliferative activity against human SK-BR-3 cells assessed as inhibition of cell proliferation incubated for 3 days by sulforhodamine B colorimetric assay. The class given is functional, cell-based. Particulars: SK-BR-3, 72 h.
Test [8] can be described thus: Induction of ferroptosis in human U-87 MG cells assessed as decrease in GPX4 protein expression incubated for 48 hrs by Western blot analysis. The class given is functional, cell-based, U-87MG ATCC. For orientation: Immunoblotting shows a protein as a band on a membrane.
Another test has as its system Glioblastoma cell line. In words: Induction of ferroptosis in human primary glioblastoma cells assessed as decrease in GPX4 protein expression incubated for 48 hrs by Western blot analysis. The class given is functional, cell-based.
In the next test the test system is BXPC-3. The test can be described thus: Anticancer activity against human BXPC-3 cells assessed as reduction in cell viability incubated for 48 hrs by MTT assay. The class given is functional, cell-based. The following applies: BXPC-3, 48 h.
In another test the test system is SW1990. In words: Anticancer activity against human SW1990 cells assessed as reduction in cell viability incubated for 48 hrs by MTT assay. The class given is functional, cell-based. Particulars: SW1990, 48 h.
The nature of test [9]: Anticancer activity against human PHMLER expressing CD24low phenotype cells assessed as reduction in cell viability incubated for 72 hrs. The class given is functional, cell-based.
For a further test, the system named is Hep 3B2. The test can be described thus: Antitumor activity against human Hep3B cells assessed as inhibition of cell viability. The class given is functional, cell-based.
The subject of test [10] is HT-1080. The test can be described thus: Antitumor activity against human HT-1080 cells assessed as inhibition of cell viability. The class given is functional, cell-based.
The test system of the next test is HepG2. The test can be described thus: Antitumor activity against human HepG2 cells assessed as inhibition of cell viability. The class given is functional, cell-based.
In another test the test system is Huh-7. The test can be described thus: Antitumor activity against human Huh-7 cells assessed as inhibition of cell viability. The class given is functional, cell-based.
The subject of test [11] is SW480. In words: Anticancer activity against human SW480 cells assessed as reduction in cell viability incubated for 24 hrs in presence of 10% FBS by CCK8 assay. The following applies: SW480, 24 h. The class given is functional, cell-based.
A further test relates to BGC-823. The test can be described thus: Anticancer activity against human BGC-823 cells assessed as inhibition of cell viability incubated for 72 hrs by MTT assay. The class given is functional, cell-based. The following applies: BGC-823, 72 h.
Another test relates to NCI-N87. The test can be described thus: Anticancer activity against human NCI-N87 cells assessed as inhibition of cell viability incubated for 72 hrs by MTT assay. The following applies: NCI-N87, 72 h. The class given is functional, cell-based.
A further test deals with SGC-7901. In words: Anticancer activity against human SGC-7901 cells assessed as inhibition of cell viability incubated for 72 hrs by MTT assay. The class given is functional, cell-based. The following applies: SGC-7901, 72 h.

Take `C[C@H]1[C@@H](O)O[C@@H]2O[C@@]3(C)CC[C@H]4[C@H](C)CC[C@@H]1[C@@]24OO3` [ARTENIMOL]: the IC50 with HL-60 came to 6.82 µM; with HEp-2, 18.1 µM; in the test on THP-1, 9.05 µM; in the test with A 172 it was 66 µM; in the test on CNE it was 18.4 µM; in test [1] it was 50 µM.

`CC(C)(C)c1ccc(S(=O)(=O)/C=C/C#N)cc1` [BAY-11-7085]: the IC50 in the test on DBTRG-05MG came out at 5.53 µM; in the test with MDA-MB-231 [2], 4.31 µM.

Turning to `COc1cc(/C=C/C(=O)CC(=O)/C=C/c2ccc(O)c(OC)c2)ccc1O` [CURCUMIN], the figures for the IC50 with MCF7 and with MDA-MB-231 [3] were 41.9 µM and 53.5 µM, respectively.

As for `CCOc1ccccc1-n1c(C(C)N2CCN(C(=O)COc3ccc(Cl)cc3)CC2)nc2ccccc2c1=O` (centres undefined) [ERASTIN], the IC50 in the test on Calu-1 turned out to be 0.14 µM; in the test with HT-1080 [4], 0.2 µM; in [5], 0.625 µM.

In the case of `C=CCc1ccc(O)c(-c2ccc(O)c(CC=C)c2)c1` [HONOKIOL], the values for the IC50 in the test with SW480 [6], with RKO and in the test on HCT-116 were 15.1 µM, 11.4 µM and 47.6 µM, respectively.

Turning to `C[C@H](CN1CCCC1)C(=O)c1ccc(C(F)(F)F)cc1` [LANPERISONE], in the test on MEF, the Activity is on record as 37%.

Consider `CCOc1cc2ncc(C#N)c(Nc3ccc(OCc4ccccn4)c(Cl)c3)c2cc1NC(=O)/C=C/CN(C)C` [NERATINIB], for which the IC50 stood at 0.117 µM in [7] and 0.0072 µM in the test with SK-BR-3.

For `COc1ccc(/C=C/C(=O)C(CC2CCC2)C(=O)/C=C/c2ccc(OC)c(OC)c2)cc1OC` [ROSOLUTAMIDE], the IC50 was less than 5 µM in test [8] and 2 µM with Glioblastoma cell line.

Regarding `C[C@@H]1CC[C@@]2(OC1)O[C@H]1C[C@H]3[C@@H]4CC=C5C[C@@H](O)C[C@@H](O)[C@]5(C)[C@H]4CC[C@]3(C)[C@H]1[C@@H]2C` [RUSCOGENIN], the IC50 turned out to be 7.32 µM with BXPC-3 and 8.14 µM with SW1990.

Take `CC[C@@H](C(=O)[C@@H](C)[C@@H](O)[C@H](C)[C@@H]1O[C@@H]([C@@H](CC)C(=O)O)CC[C@@H]1C)[C@H]1O[C@]2(C=C[C@@H](O)[C@]3(CC[C@@](C)([C@H]4CC[C@](O)(CC)[C@H](C)O4)O3)O2)[C@H](C)C[C@@H]1C` [SALINOMYCIN]: the IC50 in test [9] was 1 µM.

`CNC(=O)c1cc(Oc2ccc(NC(=O)Nc3ccc(Cl)c(C(F)(F)F)c3)cc2)ccn1` [SORAFENIB]: the concentration for half-maximal inhibition (IC50) in the test on Hep 3B2, with HT-1080 [10], in the test with HepG2 and in the test on Huh-7 was less than 10 µM each time.

For the compound `O=C(O)c1cc(/N=N/c2ccc(S(=O)(=O)Nc3ccccn3)cc2)ccc1O` [SULFASALAZINE], the IC50 with Calu-1 stood at 460 µM; in the test on HT-1080 [4], 450 µM.

On to `CCC(C)/C=C(\C)[C@H]1C(C)=C[C@@]2(C)C[C@@H](C)CC[C@@H]2[C@H]1C(=O)C1=C/C(=C/c2ccc(O)cc2)NC1=O` (some centres undefined) [TALAROCONVOLUTIN A], for which the IC50 with SW480 [11] was found to be 8.15 µM.

For `Cc1coc2c1C(=O)C(=O)c1c-2ccc2c1CCCC2(C)C` [TANSHINONE IIA], the IC50 is 2.8 µM with BGC-823, 3.1 µM in the test with NCI-N87 and 250 µM with SGC-7901.

Source of the values: ChEMBL document CHEMBL5247631, “Ferroptosis-related small-molecule compounds in cancer therapy: Strategies and applications” (Eur J Med Chem, 2022).
